Assay results reported in ChEMBL document CHEMBL1151536, “Biaryl substituted alkylboronate esters as thrombin inhibitors” (Bioorg Med Chem Lett, 1997).

What was measured:
Serine protease 1 = Serine protease 1 (Homo sapiens, UniProt P07477); test: Inhibition of trypsin
Prothrombin = Prothrombin (Homo sapiens, UniProt P00734); test: Inhibition of thrombin; set-up: species or system Oryctolagus cuniculus
[1] = In vitro inhibitory concentration expressed as thrombin time of the compound; type: functional

Serine protease 1, sequence (P07477 whole entry): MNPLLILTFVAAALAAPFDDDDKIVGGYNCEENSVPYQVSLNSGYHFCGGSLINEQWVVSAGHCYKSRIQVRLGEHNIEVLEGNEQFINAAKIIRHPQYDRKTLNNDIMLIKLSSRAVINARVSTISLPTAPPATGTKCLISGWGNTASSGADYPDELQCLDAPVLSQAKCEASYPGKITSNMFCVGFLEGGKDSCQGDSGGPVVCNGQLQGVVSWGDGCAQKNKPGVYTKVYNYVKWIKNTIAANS

SMILES: CC1(C)C2CC1[C@]1(C)OB([C@H](CCCN=C(N)N)NC(=O)c3ccc(-c4ccccc4)c([N+](=O)[O-])c3)O[C@@H]1C2 (some centres not stated)
- Ki (Serine protease 1): 4.8 nM
- Ki (Prothrombin): 4.9 nM

SMILES: N=C(N)NCCC[C@H](NC(=O)c1ccc(-c2ccccc2)cc1)B(O)O
- Ki (Prothrombin): 1.7 nM

SMILES: CC1(C)C2CC1[C@]1(C)OB([C@H](CCCN=C(N)N)NC(=O)c3ccc(-c4ccccc4)cc3)O[C@@H]1C2 (some centres not stated)
- Ki (Serine protease 1): 33 nM
- Ki (Prothrombin): 0.94 nM

SMILES: CC(C)(C)OC(=O)Nc1cccc(-c2ccc(C(=O)N[C@@H](CCCNC(=N)N)B3O[C@@H]4CC5CC(C5(C)C)[C@]4(C)O3)s2)c1 (some centres not stated)
- Ki (Serine protease 1): 13 nM
- Ki (Prothrombin): 42 nM

SMILES: COC(=O)NS(=O)(=O)c1ccccc1-c1ccc(C(=O)N[C@@H](CCCN=C(N)N)B2O[C@@H]3CC4CC(C4(C)C)[C@]3(C)O2)c(C)c1 (some centres not stated)
- Ki (Serine protease 1): 0.64 nM
- IC50 [1]: 225 nM
- Ki (Prothrombin): 1.1 nM

SMILES: Cc1nc(-c2ccccc2)ccc1C(=O)N[C@@H](CCCCN)B1O[C@@H]2CC3CC(C3(C)C)[C@]2(C)O1 (some centres not stated)
- Ki (Prothrombin): 580 nM

SMILES: CC1(C)C2CC1[C@]1(C)OB([C@H](CCCN=C(N)N)NC(=O)c3ccc(-c4ccccc4)c(N)c3)O[C@@H]1C2 (some centres not stated)
- Ki (Serine protease 1): 4.7 nM
- Ki (Prothrombin): 5.5 nM

SMILES: Cc1cc(-c2ccccc2)ccc1C(=O)N[C@@H](CCCN=C(N)N)B1O[C@@H]2CC3CC(C3(C)C)[C@]2(C)O1 (some centres not stated)
- Ki (Serine protease 1): 4.2 nM
- IC50 [1]: 600 nM
- Ki (Prothrombin): 0.42 nM

SMILES: Cc1nc(-c2ccccc2)ncc1C(=O)N[C@@H](CCCCN)B1O[C@@H]2CC3CC(C3(C)C)[C@]2(C)O1 (some centres not stated)
- Ki (Prothrombin): 410 nM

SMILES: CCN(CC)S(=O)(=O)c1ccccc1-c1ccc(C(=O)N[C@@H](CCCNC(=N)N)B2O[C@@H]3CC4CC(C4(C)C)[C@]3(C)O2)c(C)c1 (some centres not stated)
- Ki (Serine protease 1): 0.62 nM
- Ki (Prothrombin): 0.36 nM

SMILES: CC1(C)C2CC1[C@]1(C)OB([C@H](CCCNC(=N)N)NC(=O)c3cccc(-c4ccccc4)c3)O[C@@H]1C2 (some centres not stated)
- Ki (Serine protease 1): 7.4 nM
- Ki (Prothrombin): 110 nM

SMILES: CC(=O)N[C@H](Cc1ccccc1)C(=O)N1CCC[C@H]1C(=O)N[C@@H](CCCN=C(N)N)B(O)O
- IC50 [1]: 55 nM

SMILES: Cc1nc(-c2ccccc2)ncc1C(=O)N[C@@H](CCCN=C(N)N)B1O[C@@H]2CC3CC(C3(C)C)[C@]2(C)O1 (some centres not stated)
- Ki (Prothrombin): 10 nM

SMILES: CC(C)(C)OC(=O)Nc1cccc(-c2cccc(C(=O)N[C@@H](CCCN=C(N)N)B3O[C@@H]4CC5CC(C5(C)C)[C@]4(C)O3)c2)c1 (some centres not stated)
- Ki (Serine protease 1): 35 nM
- Ki (Prothrombin): 8.3 nM

SMILES: CC1(C)C2CC1[C@]1(C)OB([C@H](CCCN=C(N)N)NC(=O)c3ccc(-c4ccccc4)cc3F)O[C@@H]1C2 (some centres not stated)
- Ki (Prothrombin): 1.2 nM

SMILES: CC1(C)C2CC1[C@]1(C)OB([C@H](CCCN=C(N)N)NC(=O)c3ccc(-c4ccccc4)cc3N)O[C@@H]1C2 (some centres not stated)
- Ki (Serine protease 1): 5.3 nM
- Ki (Prothrombin): 1.3 nM

SMILES: CC1(C)C2CC1[C@]1(C)OB([C@H](CCCN=C(N)N)NC(=O)c3ccc(-c4ccccc4)cc3[N+](=O)[O-])O[C@@H]1C2 (some centres not stated)
- Ki (Prothrombin): 4.7 nM

SMILES: CC(C)(C)OC(=O)Nc1cccc(-c2ccc(C(=O)N[C@@H](CCCN=C(N)N)B3O[C@@H]4CC5CC(C5(C)C)[C@]4(C)O3)o2)c1 (some centres not stated)
- Ki (Serine protease 1): 25 nM
- Ki (Prothrombin): 30 nM

SMILES: CC1(C)C2CC1[C@]1(C)OB([C@H](CCCNC(=N)N)NC(=O)c3ccc(-c4ccccc4)o3)O[C@@H]1C2 (some centres not stated)
- Ki (Prothrombin): 137 nM

SMILES: CC1(C)C2CC1[C@]1(C)OB([C@H](CCCNC(=N)N)NC(=O)c3ccc(-c4ccncc4)cc3)O[C@@H]1C2 (some centres not stated)
- Ki (Prothrombin): 19 nM

SMILES: Cc1cc(-c2ccccc2S(=O)(=O)NC(C)(C)C)ccc1C(=O)N[C@@H](CCCN=C(N)N)B1O[C@@H]2CC3CC(C3(C)C)[C@]2(C)O1 (some centres not stated)
- Ki (Serine protease 1): 0.7 nM
- IC50 [1]: 140 nM
- Ki (Prothrombin): 0.21 nM

SMILES: Cc1cc(-c2ccccc2C(F)(F)F)ccc1C(=O)N[C@@H](CCCN=C(N)N)B1O[C@@H]2CC3CC(C3(C)C)[C@]2(C)O1 (some centres not stated)
- Ki (Serine protease 1): 3.1 nM
- Ki (Prothrombin): 0.46 nM

SMILES: Cc1cc(-c2ccccc2S(N)(=O)=O)ccc1C(=O)N[C@@H](CCCN=C(N)N)B1O[C@@H]2CC3CC(C3(C)C)[C@]2(C)O1 (some centres not stated)
- Ki (Serine protease 1): 0.11 nM
- IC50 [1]: 110 nM
- Ki (Prothrombin): 0.92 nM

SMILES: CC1(C)OB([C@H](CCCNC(=N)N)NC(=O)c2ccccc2)OC1(C)C
- Ki (Serine protease 1): 70 nM
- Ki (Prothrombin): 512 nM

SMILES: Cc1cc(-c2ccccc2)ccc1C(=O)N[C@@H](CCCCN)B1O[C@@H]2CC3CC(C3(C)C)[C@]2(C)O1 (some centres not stated)
- Ki (Prothrombin): 26 nM

SMILES: CC1(C)C2CC1[C@]1(C)OB([C@H](CCCNC(=N)N)NC(=O)c3cccc(-c4cccc(NS(C)(=O)=O)c4)c3)O[C@@H]1C2 (some centres not stated)
- Ki (Serine protease 1): 3.8 nM
- Ki (Prothrombin): 3.5 nM

SMILES: CC1(C)C2CC1[C@]1(C)OB([C@H](CCCN=C(N)N)NC(=O)Cc3ccc(-c4ccccc4)cc3)O[C@@H]1C2 (some centres not stated)
- Ki (Prothrombin): 6.9 nM
